Source: paper PMC7982320 (Pharmacology Research & Perspectives, 2021)
Read-outs that look alike come from different tables or passages of the source.

Legend:
human OCT1 = human OCT1 (Homo sapiens, UniProt O15245); experiment: Transporter inhibition, uptake assay; format: in vitro ADME
[1] = healthy male subjects, single oral dose of 60 mg 14C‐DFZ; cited from earlier work
CYP1A2 = CYP1A2 (Homo sapiens, UniProt P05177); format: in vitro ADME; conditions: read-out: IC50, No preincubation; CYP1A2, pooled HLMs, n = 3
Chain of CYP1A2 (P05177 whole entry): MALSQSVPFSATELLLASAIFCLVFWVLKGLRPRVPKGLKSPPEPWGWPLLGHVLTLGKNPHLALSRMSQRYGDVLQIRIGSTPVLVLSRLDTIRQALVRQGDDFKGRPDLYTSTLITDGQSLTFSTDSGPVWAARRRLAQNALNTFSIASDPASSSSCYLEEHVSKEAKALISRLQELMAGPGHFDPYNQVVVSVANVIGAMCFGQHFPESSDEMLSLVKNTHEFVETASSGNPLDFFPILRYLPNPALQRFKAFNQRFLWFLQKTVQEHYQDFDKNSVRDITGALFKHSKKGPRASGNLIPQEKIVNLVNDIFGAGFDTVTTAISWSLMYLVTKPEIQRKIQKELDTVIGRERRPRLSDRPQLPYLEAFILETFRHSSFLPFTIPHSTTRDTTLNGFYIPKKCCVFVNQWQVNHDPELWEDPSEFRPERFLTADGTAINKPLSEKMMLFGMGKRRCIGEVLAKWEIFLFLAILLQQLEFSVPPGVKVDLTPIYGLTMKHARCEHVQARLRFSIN

CYP3A4 = conditions: 48 h

Chain of human OCT1 (O15245 whole entry): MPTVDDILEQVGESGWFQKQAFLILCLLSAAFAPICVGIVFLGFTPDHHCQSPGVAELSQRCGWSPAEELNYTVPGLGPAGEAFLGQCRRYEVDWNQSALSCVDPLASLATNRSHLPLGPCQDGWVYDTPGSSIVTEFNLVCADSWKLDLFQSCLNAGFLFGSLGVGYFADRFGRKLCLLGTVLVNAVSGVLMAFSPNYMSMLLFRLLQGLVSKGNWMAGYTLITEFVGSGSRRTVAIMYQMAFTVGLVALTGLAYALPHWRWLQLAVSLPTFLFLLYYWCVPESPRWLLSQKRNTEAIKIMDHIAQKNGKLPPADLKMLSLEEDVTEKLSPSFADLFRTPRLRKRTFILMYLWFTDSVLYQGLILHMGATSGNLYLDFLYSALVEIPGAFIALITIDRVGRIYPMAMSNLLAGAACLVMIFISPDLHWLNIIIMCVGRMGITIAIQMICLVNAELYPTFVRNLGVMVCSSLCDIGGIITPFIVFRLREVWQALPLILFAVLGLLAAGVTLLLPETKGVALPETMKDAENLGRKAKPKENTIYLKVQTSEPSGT

Compound: CC1=N[C@]2(C(=O)CO)[C@@H](C[C@H]3[C@@H]4C[C@@H](O)C5=CC(=O)C=C[C@]5(C)[C@H]4[C@@H](O)C[C@@]32C)O1 [6β‐OH‐21‐desDFZ, 6β‐Hydroxy‐21‐desacetyl deflazacort]
- inhibitory interaction with transporter (human OCT1; OCT1, up to 50 µM): no inhibitory interaction
- Maximum inhibition at 50 µM (human OCT1; OCT1 UPT, n = 3): 23 % of control
- share of 0–24 h plasma levels of total radioactivity [1]: 25%
- IC50 (CYP1A2): > 50 µM
- CYP3A4 enzyme activity fold induction (CYP3A4; donor one, 0.002 µM): 0.600 fold
- CYP3A4 mRNA fold induction (CYP3A4; donor one, 0.002 µM): 0.450 fold
- CYP3A4 enzyme activity fold induction (CYP3A4; donor one, 0.01 µM): 0.595 fold
- CYP3A4 mRNA fold induction (CYP3A4; donor one, 0.01 µM): 0.583 fold
- CYP3A4 enzyme activity fold induction (CYP3A4; donor one, 0.05 µM): 0.604 fold
- CYP3A4 mRNA fold induction (CYP3A4; donor one, 0.05 µM): 0.507 fold
- CYP3A4 enzyme activity fold induction (CYP3A4; donor one, 0.25 µM): 0.685 fold
- CYP3A4 mRNA fold induction (CYP3A4; donor one, 0.25 µM): 0.681 fold
- CYP3A4 enzyme activity fold induction (CYP3A4; donor one, 5 µM): 0.451 fold
- CYP3A4 mRNA fold induction (CYP3A4; donor one, 5 µM): 0.647 fold
- CYP3A4 enzyme activity fold induction (CYP3A4; donor one, 10 µM): 0.446 fold
- CYP3A4 mRNA fold induction (CYP3A4; donor one, 10 µM): 0.890 fold
- CYP3A4 enzyme activity fold induction (CYP3A4; donor one, 20 µM): 0.561 fold
- CYP3A4 mRNA fold induction (CYP3A4; donor one, 20 µM): 1.74 fold
- CYP3A4 enzyme activity fold induction (CYP3A4; donor three, 0.002 µM): 0.626 fold
- CYP3A4 mRNA fold induction (CYP3A4; donor three, 0.002 µM): 0.562 fold
- CYP3A4 enzyme activity fold induction (CYP3A4; donor three, 0.01 µM): 0.543 fold
- CYP3A4 mRNA fold induction (CYP3A4; donor three, 0.01 µM): 0.484 fold
- CYP3A4 enzyme activity fold induction (CYP3A4; donor three, 0.05 µM): 0.545 fold
- CYP3A4 mRNA fold induction (CYP3A4; donor three, 0.05 µM): 0.450 fold
- CYP3A4 enzyme activity fold induction (CYP3A4; donor three, 0.25 µM): 0.668 fold
- CYP3A4 mRNA fold induction (CYP3A4; donor three, 0.25 µM): 0.684 fold
- CYP3A4 enzyme activity fold induction (CYP3A4; donor three, 5 µM): 0.542 fold
- CYP3A4 mRNA fold induction (CYP3A4; donor three, 5 µM): 0.615 fold
- CYP3A4 enzyme activity fold induction (CYP3A4; donor three, 10 µM): 0.563 fold
- CYP3A4 mRNA fold induction (CYP3A4; donor three, 10 µM): 0.764 fold
- CYP3A4 enzyme activity fold induction (CYP3A4; donor three, 20 µM): 0.637 fold
- CYP3A4 mRNA fold induction (CYP3A4; donor three, 20 µM): 1.33 fold
- CYP3A4 enzyme activity fold induction (CYP3A4; donor two, 0.002 µM): 0.601 fold
- CYP3A4 mRNA fold induction (CYP3A4; donor two, 0.002 µM): 0.739 fold
- CYP3A4 enzyme activity fold induction (CYP3A4; donor two, 0.01 µM): 0.635 fold
- CYP3A4 mRNA fold induction (CYP3A4; donor two, 0.01 µM): 0.714 fold
- CYP3A4 enzyme activity fold induction (CYP3A4; donor two, 0.05 µM): 0.657 fold
- CYP3A4 mRNA fold induction (CYP3A4; donor two, 0.05 µM): 0.739 fold
- CYP3A4 enzyme activity fold induction (CYP3A4; donor two, 0.25 µM): 0.769 fold
- CYP3A4 mRNA fold induction (CYP3A4; donor two, 0.25 µM): 0.817 fold
- CYP3A4 enzyme activity fold induction (CYP3A4; donor two, 5 µM): 0.690 fold
- CYP3A4 mRNA fold induction (CYP3A4; donor two, 5 µM): 0.856 fold
- CYP3A4 enzyme activity fold induction (CYP3A4; donor two, 10 µM): 0.637 fold
- CYP3A4 mRNA fold induction (CYP3A4; donor two, 10 µM): 1.02 fold
- CYP3A4 enzyme activity fold induction (CYP3A4; donor two, 20 µM): 0.856 fold
- CYP3A4 mRNA fold induction (CYP3A4; donor two, 20 µM): 1.95 fold
